Measured values reported in patent US10406227B2, “Photoactivated molecules for light-induced modulation of the activity of electrically excitable cells and methods of using same” (University of Southern California, priority 2012, dated 2019).

Key:
chromaffin cells = assay: Cell-attached membrane perforation test (capacitive charging transient); format: cell-based, mouse; conditions: positive control in pipette; within 5 minutes of gigaseal formation
Description: FIGS. 5A-5H depict data from various experiments related to characteristics of RubpyC17-loaded cells. […] Inset images shown to the right of trace confirmed proper integration of RubpyC17 in patched cells. FIGS. 5C-5E show the light-induced action potential firing in chromaffin cells was not due to biophysical changes in voltage-gated ion channels as there were no significant changes in current-voltage relationships (C-D) nor in steady-state activation curve (E) in RubpyC17-loaded chromaffin cells before (open circle) or during ([…]) light illumination. […] Peak inward currents from each stimulation jump were plotted against corresponding stimulating voltages (n=6). […] Data from representative cell is shown (n=5). […] Currents resulting from capacitor-like behavior of chromaffin cell membranes during hyperpolarizing jumps to −85 mV from a resting membrane potential of −80 mV were recorded 5 min following giga-seal formation for amphoterecin B (bottom trace) or 10 min following giga-seal formation for RubpyC17 (top trace).
Finally, to test whether illumination of RubpyC17 incorporated in cell membranes causes nonspecific membrane poration or other damage, 18 μM RubpyC17 was loaded inside a patch pipette and attached to a cell (gigaseal formation) in the cell-attached configuration. […]

[1] = Time-resolved emission spectroscopy (luminescence decay kinetics); format: physicochemical; conditions: degassed dichloromethane; excited 355 nm, monitored 560 nm
Procedure: Time-resolved emission spectroscopy was used to characterize the MLCT excited state of the D-B-A complex. Luminescence decay kinetics were recorded in degassed dichloromethane. The D-B-A complex was excited at 355 nm with an 8-ns laser pulse and luminescence was monitored at 560 nm. […] For comparison, the MLCT lifetime of the reference complex, [Re(CO)3(bpy)(py)]+, determined under identical experimental conditions, is 550 ns.
While the rate of intramolecular ET is concentration independent, intermolecular quenching processes vary predictably with concentration. As such, it is possible to separate the two quenching mechanisms and obtain rate constants for each. Time-resolved luminescence measurements at a series of D-B-A concentrations allow a second order intermolecular quenching rate to be determined. As the concentration was increased, shorter lifetimes were recorded in both dichloromethane and acetonitrile.
This lifetime includes both the natural decay of the photoexcited rhenium as well as quenching through intramolecular electron transfer. […] As the difference in lifetime of the D-B-A and model complex is quite small, these values should be considered upper bounds.

Structure (SMILES)	capacitive charging transient (membrane perforation) (chromaffin cells)	luminescence (MLCT) lifetime [1] [ns]
C[C@@H]1[C@H](O)[C@@H](C)/C=C/C=C/C=C/C=C/C=C/C=C/C=C/[C@H](O[C@@H]2O[C@H](C)[C@@H](O)[C@H](N)[C@@H]2O)C[C@@H]2O[C@](O)(C[C@@H](O)C[C@@H](O)[C@H](O)CC[C@@H](O)C[C@@H](O)CC(=O)O[C@H]1C)C[C@H](O)[C@H]2C(=O)O [amphotericin B, reference compound]	a sizable capacitive charging transient	–
[C-]#[O+].[C-]#[O+].[C-]#[O+].[Re+].c1ccc(-c2ccccn2)nc1.c1ccncc1 [[Re(CO)3(bpy)(py)]+]	–	550
